Measurements reported in US4012345A, “Des-(Ala^1, Gly^2), Met^11 -SRIF and intermediates” (American Home Products Corporation, priority 1976, dated 1977).
Positions of bridges follow the written chain, without caps; N, C: chain ends. Residues, ends and D or L forms follow the SMILES beside them.

Key:
growth hormone = assay: Arginine-stimulated plasma growth hormone in Nembutal-anesthetized rats (radioimmunoassay); type: in vivo, albino male rats; settings: *p < 0.01
Procedure: (§1) The in vivo activity of the compounds of this invention was established by subjecting des-(Ala^1, Gly2), Met^11 -Somatostatin, as a representative compound of the invention, to the following standard test procedure: Three groups of ten albino male rats were arranged to provide a control group, a group for observation of Somatostatin activity as the standard and a group for the study of the test compound des-(Ala^1, Gly^2), Met^11 -Somatostatin. Nembutal (50 mg/kg) was injected intraperitoneally into each rat. Fifteen minutes later a subcutaneous injection of the test compound, somatostatin and physiological saline (control) was administered separately to each of the three groups of rats. Ten minutes later 0.5 milliliters of arginine (300 mg/ml, pH 7.2) was injected into the rats heart. The rats were decapitated five minutes later and their blood was collected in Trasylol -EDTA. Aliquot samples were radioimmunoassayed for growth hormone and insulin.

insulin = assay: Arginine-stimulated plasma insulin in Nembutal-anesthetized rats (radioimmunoassay); type: in vivo, albino male rats
Procedure: as §1

somatotropin = settings: Brazeau et al., Science, 179 pp 77-79 (1973); cited from earlier work

CSCC[C@@H]1NC(=O)[C@H]([C@@H](C)O)NC(=O)[C@H](CCCCN)NC(=O)[C@H](Cc2c[nH]c3ccccc23)NC(=O)[C@H](Cc2ccccc2)NC(=O)[C@H](Cc2ccccc2)NC(=O)[C@H](CC(N)=O)NC(=O)[C@H](CCCCN)NC(=O)[C@@H](N)CSSC[C@@H](C(=O)O)NC(=O)[C@H](CO)NC(=O)[C@H]([C@@H](C)O)NC1=O [Example 3, L-Cysteinyl-L-lysyl-L-asparaginyl-L-phenylalanyl-L-phenylalanyl-L-tryptophyl-L-lysyl-L-threonyl-L-methionyl-L-threonyl-L-seryl-L-cysteine (1-12) disulfide] (H-CKNFFWKTMTSC-OH; disulfide 1-12)
GH (growth hormone; Experiment 2, dose 100 μg/kg subcutaneous, control 176 ± 29): 72 ± 12 ng/mL
GH (growth hormone; Experiment 3, dose 1500 μg/kg subcutaneous, control 123 ± 16): 42 ± 10 ng/mL
Insulin (insulin; Experiment 1, dose 400 μg/kg subcutaneous, control 172 ± 11, *p < 0.01): 143 ± 13 μU/ml
Insulin (insulin; Experiment 3, dose 1500 μg/kg subcutaneous, control 206 ± 19): 128 ± 13 μU/ml

H-Ala-Gly-Cys-Lys-Asn-Phe-Phe-Trp-Lys-Thr-Phe-Thr-Ser-Cys-OH (H-AGCKNFFWKTFTSC-OH; ends and bridges not checked) [linear form of somatostatin]
inhibition of secretion of somatotropin (growth hormone) (somatotropin): same biological activity as somatostatin obtained from a natural source
